{"source": "patent US20240398813A1", "about": "“PHARMACEUTICAL COMPOSITION FOR PREVENTING OR TREATING OVERACTIVE BLADDER” (GWANGJU INSTITUTE OF SCIENCE AND TECHNOLOGY, priority 2021, published 2024)", "assay_type_in_all_cases": "cell-based", "key": {"[1]": {"biological_target": "T1, BKCa channels co-expressed with the β1 subunit (rSlo α + KCNMB1) (Rattus norvegicus, UniProt Q62976)", "T1 construct": "expressed in transfected cells; host or cells: Xenopus laevis oocytes, cRNA alpha:beta 1:12", "T1 sequence (Q62976 whole entry)": "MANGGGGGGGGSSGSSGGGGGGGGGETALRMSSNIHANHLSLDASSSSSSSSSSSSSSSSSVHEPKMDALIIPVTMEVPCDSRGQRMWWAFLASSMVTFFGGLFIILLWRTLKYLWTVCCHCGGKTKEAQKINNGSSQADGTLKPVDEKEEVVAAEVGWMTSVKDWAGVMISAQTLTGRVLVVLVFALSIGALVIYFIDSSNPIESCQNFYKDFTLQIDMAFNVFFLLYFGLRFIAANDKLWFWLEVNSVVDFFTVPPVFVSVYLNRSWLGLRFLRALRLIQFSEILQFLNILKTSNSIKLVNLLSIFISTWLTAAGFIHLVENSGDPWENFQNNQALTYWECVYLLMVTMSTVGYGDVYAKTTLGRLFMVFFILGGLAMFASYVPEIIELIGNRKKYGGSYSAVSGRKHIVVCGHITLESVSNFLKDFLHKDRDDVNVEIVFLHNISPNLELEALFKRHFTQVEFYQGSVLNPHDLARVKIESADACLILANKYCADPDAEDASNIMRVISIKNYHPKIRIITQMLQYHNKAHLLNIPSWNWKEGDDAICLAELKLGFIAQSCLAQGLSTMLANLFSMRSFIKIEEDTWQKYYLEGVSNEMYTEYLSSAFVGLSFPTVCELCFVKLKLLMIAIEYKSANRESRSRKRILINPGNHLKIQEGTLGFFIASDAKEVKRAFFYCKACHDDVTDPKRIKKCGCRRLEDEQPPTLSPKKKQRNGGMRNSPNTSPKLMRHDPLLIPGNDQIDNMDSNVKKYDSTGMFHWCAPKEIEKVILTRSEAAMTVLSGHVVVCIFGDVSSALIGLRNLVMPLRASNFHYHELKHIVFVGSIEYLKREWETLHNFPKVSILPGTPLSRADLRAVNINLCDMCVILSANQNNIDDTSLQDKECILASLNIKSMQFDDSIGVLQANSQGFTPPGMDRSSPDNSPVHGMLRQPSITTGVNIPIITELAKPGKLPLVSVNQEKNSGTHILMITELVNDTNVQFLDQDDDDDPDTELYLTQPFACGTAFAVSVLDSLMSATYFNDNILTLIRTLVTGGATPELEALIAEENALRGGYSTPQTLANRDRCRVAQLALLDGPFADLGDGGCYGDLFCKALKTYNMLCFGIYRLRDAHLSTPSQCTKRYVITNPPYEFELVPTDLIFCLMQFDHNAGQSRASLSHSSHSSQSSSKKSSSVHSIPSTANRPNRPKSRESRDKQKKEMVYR", "T1 sequence (P97678 whole entry partner)": "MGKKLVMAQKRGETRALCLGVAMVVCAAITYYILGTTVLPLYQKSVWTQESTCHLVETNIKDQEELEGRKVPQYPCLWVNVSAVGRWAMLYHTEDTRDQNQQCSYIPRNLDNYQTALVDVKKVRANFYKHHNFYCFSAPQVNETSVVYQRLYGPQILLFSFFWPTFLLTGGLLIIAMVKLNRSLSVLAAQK", "assay": "Macroscopic current recording, BKCa channels co-expressed with β1 subunits in Xenopus oocytes", "conditions": "10 μM", "from_the_text": "(§1) The complete coding sequence (CDS) of each of rat KCNMA (rSlo α) (GenBank AF135265.1), KCNMB1 (rSlo 01) (GenBank FJ154955.1) and KCNMB4 (rSlo β4) (GenBank AY028605) was subcloned into pNBC2.0 or pNBC2.0. These vectors were designed to be expressed in Xenopus oocytes (Ha, T. S., Lim, H. H., Lee, G. E., Kim, Y. C., & Park, C. S. (2006). Electrophysiological characterization of benzofuroindole-induced potentiation of large-conductance Ca2+-activated K+ channels. Mol Pharmacol, 69(3), 1007-1014). The plasmid was linearized by NotI and complementary RNA (cRNA) was synthesized using the Ambion T7 mMESSAGE mMACHINE kit (Invitrogen, Carlsbad, CA, USA) according to the manufacturer's instructions. Xenopus laevis (KXRCR000001) was obtained from the Korea Xenopus Resource Center for Research (Chuncheon-si, Gangwon-do, Korea). Stage V-VI oocytes were surgically extracted from the ovarian lobes of X. laevis. A follicular cell layer was removed by culturing in Ca^2+-free oocyte Ringer's medium (86 mM NaCl, 1.5 mM KCl, 2 mM MgCl2 and 10 mM HEPES, pH 7.6) containing collagenase for 1.5 hours at room temperature. Oocytes without follicular layer were washed with ND-96 medium (96 mM NaCl, 2 mM KCl, 1.8 mM CaCl2), 1 mM MgCl2, 5 mM HEPES, […] gentamicin, pH 7.6). The prepared oocytes were stabilized overnight at 18° C. cRNA was injected into each oocyte (50 ng per oocyte) using a microdispenser (Drummond Scientific, Broomall, PA, USA). For co-expression of the β subunits, cRNA was mixed at a molar ratio of 1:12 (α:β) to induce sufficient co-assembly of the R subunits. After injection of cRNA, the oocytes were cultured in ND-96 medium for 1-3 days at 18° C. Before recording macroscopic currents, vitelline membranes of the oocytes were completely removed using fine forceps.\n(§2) All macroscopic current recordings in the BKCa channels were performed using the gigaohm-seal patch-clamp method in an outside-out configuration (Ha et al., 2006). A patch pipette was made of borosilicate glass (WPI, Sarasota, FL, USA) and fire-polished by a resistance of 3-5 MQ. […]"}, "[2]": {"biological_target": "T2, BKCa channels (rat KCNMA, rSlo α) (Rattus norvegicus, UniProt Q62976)", "T2 construct": "expressed in transfected cells; host or cells: Xenopus laevis oocytes injected with cRNA", "T2 sequence (Q62976 whole entry)": "as the sequence (Q62976 whole entry) above", "assay": "Macroscopic current recording, outside-out patch clamp, BKCa channels expressed in Xenopus oocytes", "from_the_text": "as §1\nAll macroscopic current recordings in the BKCa channels were performed using the gigaohm-seal patch-clamp method in an outside-out configuration (Ha et al., 2006). A patch pipette was made of borosilicate glass (WPI, Sarasota, FL, USA) and fire-polished by a resistance of 3-5 MQ. Ion currents were amplified using an Axopatch 200B amplifier (Molecular Devices). The currents were low-pass filtered at 1 kHz using a four-pole Bessel filter and digitized at a rate of 10 or 20 points/ms using a Digidata 1200A interface (Molecular Devices). The BKCa channels were activated by repeated voltage clamps at +100 mV or by voltage clamp pulses ranging from −80 to +200 mV with an increment of 10 mV. The resting potential was maintained at −100 mV. The recording solution contained 116 mM KOH, 4 mM KCl, 10 mM HEPES, and 5 mM EGTA (pH 7.2). The intracellular solution contained 3 μM Ca^2+ in the recording solution (pH 7.0). MaxChelator program was used to calculate the total amount of Ca^2+ to be added to the intracellular solution for obtaining free Ca^2+ at a concentration of 3 μM.\nThe commercial software Clampex 8.0 (Molecular Device) and Origin 9.1 (OriginLab Corp., Northampton, MA, USA) were used for data analysis and fitting of the macroscopic currents. A conductance-voltage (G-V) curve obtained from the external current was fitted by the Boltzmann equation [y=(Gmax−Gmin)/{1+exp[(V1/2−x)/k]}+Gmin]. Wherein k is RT/zF, and wherein R is a gas constant, T is a temperature, F is the Faraday's constant, and z is a gating charge. Gmax is the maximum conductivity and V1/2 is a voltage for half maximum conductivity. The concentration-dependent V1/2 shift was fitted by the Hill equation [y=AVi/2,max x^n/(EC50^n+x^n)]. Wherein ΔV1/2,max is a constant. EC50 is half the apparent maximum effective concentration and n is the Hill coefficient. By definition, the apparent dissociation constant KD was obtained by EC50^n. The association time constant (r association) was obtained by fitting the exponential equation [y=A exp(−x/τ)+C]. Wherein A and C are constants and τ is the time to reach (1−1/e) ( ? 63%) of the maximum current level. […]"}, "[3]": {"biological_target": "T3, BKCa channels co-expressed with the β4 subunits (rSlo α + KCNMB4) (Rattus norvegicus, UniProt Q62976)", "T3 construct": "expressed in transfected cells; host or cells: Xenopus laevis oocytes, cRNA alpha:beta 1:12", "T3 sequence (Q62976 whole entry)": "as above", "T3 sequence (Q9ESK8 whole entry partner)": "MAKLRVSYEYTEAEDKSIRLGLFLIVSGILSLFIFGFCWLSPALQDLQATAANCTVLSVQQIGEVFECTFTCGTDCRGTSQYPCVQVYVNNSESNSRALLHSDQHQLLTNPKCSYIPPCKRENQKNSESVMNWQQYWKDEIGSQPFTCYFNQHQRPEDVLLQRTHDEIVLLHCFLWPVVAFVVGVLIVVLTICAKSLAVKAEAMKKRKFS", "assay": "Macroscopic current recording, BKCa channels co-expressed with β4 subunits in Xenopus oocytes", "conditions": "10 μM", "from_the_text": "as §1, §2"}, "[4]": {"conditions": "washout after 10 μM, double exponential fit"}}, "note": "pEC50: −log10 of the molar value."}
{"smiles": "Cc1cccc(NC(=O)c2sc(=S)n3c2[nH]c(=O)c2cc(Br)ccc23)c1", "note": "[TTQC-1, 7-bromo-5-oxo-1-thioxo-N-(m-tolyl)-4,5-dihydro-1H-thiazolo[3,4-a]quinazoline-3-carboxamide]", "values": [{"measurement": "effect on τ activation", "setting": "[1]", "value": "changed the τ activation only at 190 mV"}, {"measurement": "increase of τ deactivation", "setting": "[1]; at 180 mV", "value": 4.6, "unit": "times"}, {"measurement": "shift of G-V curve to the left", "setting": "[1]; β1 co-expressed", "value": "23.0±2.67", "unit": "mV"}, {"measurement": "effect on channel activation time constant (τ activation)", "setting": "[2]; 10 μM", "value": "did not show significant changes"}, {"measurement": "association time constant (τ association)", "setting": "[2]; 10 μM, +100 mV pulses, 3 μM intracellular Ca2+", "value": "11.7 ± 1.77", "unit": "s"}, {"measurement": "increase of channel deactivation time constant (τ deactivation)", "setting": "[2]; 10 μM, at +200 mV", "value": 5.3, "unit": "times"}, {"measurement": "half-activation voltage (V1/2)", "setting": "[2]; 30 μM", "value": "37.9±7.50", "unit": "mV"}, {"measurement": "increase of maximum conductance (Gmax) compared to vehicle (G0max)", "setting": "[2]; 30 μM", "value": "1.4±0.11", "unit": "times"}, {"measurement": "pEC50", "setting": "[2]; 0.1-30 μM, 3 μM intracellular Ca2+, read-out: apparent EC50 of V1/2 shift (Hill equation)", "value": 5.55}, {"measurement": "Hill coefficient n", "setting": "[2]; fit of V1/2 shift", "value": 2.0}, {"measurement": "Afast (amplitude of fast dissociation component)", "setting": "[2]; washout after 10 μM", "value": "0.49±0.064"}, {"measurement": "Aslow (amplitude of slow dissociation component)", "setting": "[2]; washout after 10 μM", "value": "0.53±0.054"}, {"measurement": "dissociation time constant, fast component", "setting": "[2]; [4]", "value": "7.8 ± 1.10", "unit": "s"}, {"measurement": "dissociation time constant, slow component", "setting": "[2]; [4]", "value": "136.2 ± 11.24", "unit": "s"}, {"measurement": "effect on τ activation", "setting": "[3]", "value": "did not significantly affect"}, {"measurement": "increase of τ deactivation", "setting": "[3]; at 170 mV", "value": 3.7, "unit": "times"}, {"measurement": "shift of G-V curve to the left", "setting": "[3]; β4 co-expressed", "value": "7.12±0.65", "unit": "mV"}]}
